In brackets after ≈: the same amount, converted by molar mass. Square brackets hold non-standard residues; d marks the D form. Peptide text beside a SMILES is read from it. Aib = CC(C)(N)C(=O)O
Assays:
[1] = system: blood glucose of diabetic db/db mice; assay: Glucose lowering in female diabetic dbdb-mice; format: in vivo; conditions: 100 μg/kg s.c.
Experimental: Female diabetic dbdb-mice (BKS.Cg− +Leprdb/+Leprdb/OlaHsd) 10 weeks of age at study start were used. Mice were habituated to feeding and housing conditions for at least 2 weeks. 7 days prior to study start, HbA1c were determined to allocate mice to groups, aiming to spread low, medium and high HbA1c-values and in consequence the group-means (n=8), as equally as possible. On the day of study, food was removed, directly before sampling for baseline glucose assessment (t=0 min) Immediately afterwards, compounds or vehicle (phosphor buffered saline, PBS) were administered subcutaneously, 100 μg/kg, 10 ml/kg. Afterwards, blood samples were drawn by tail tip incision at 15, 30, 60, 90, 120, 150, 180, 240, 360, 480 min and 24 h. Food was re-offered after the 480 min-sampling. Data were analysed by 2-W-ANOVA on repeated measurements, followed by Dunnett's test as post-hoc assessment, level of significance p<0.05.

[2] = in vivo; conditions: mouse, sc, 1 mg/kg
Experimental: Mice were dosed 1 mg/kg subcutaneously (s.c.). The mice were sacrificed and blood samples were collected after 0.25, 0.5, 1, 2, 4, 8, 16 and 24 hours post application. Plasma samples were analyzed after protein precipitation via liquid chromatography mass spectrometry (LC/MS). PK parameters and half-life were calculated using WinonLin Version 5.2.1 (non-compartment model).

[3] = physchem; format: physicochemical
[4] = format: physicochemical; conditions: buffer, 168 h
Description: The chemical stability is expressed as “% remaining peptide”.

Row | SMILES | maximal effect, glucose reduction ([1]; at t=30 min) [mmol/L] | reduction of glucose compared to vehicle control ([1]; from t=30 min to 24 h, p<0.05) | Cmax [2] [ng/mL] | half-life [2] [h] | solubility at 2 h ([3]; pH 4.5) [µg/mL] | solubility at 2 h ([3]; pH 7.4) [µg/mL] | Stability (pH 4.5), % remaining peptide ([4]; pH 4.5) [%] | Stability (pH 7.4), % remaining peptide [4] [%]
1 | CC[C@H](C)[C@H](NC(=O)[C@H](Cc1ccccc1)NC(=O)[C@H](CC(C)C)NC(=O)[C@H](CCCNC(=N)N)NC(=O)[C@@H](NC(=O)[C@H](C)NC(=O)[C@H](CCC(=O)O)NC(=O)[C@H](CCCCN)NC(=O)[C@H](CCC(=O)O)NC(=O)[C@H](CC(C)C)NC(=O)[C@H](CC(C)C)NC(=O)[C@H](CCCCN)NC(=O)[C@H](CO)NC(=O)[C@H](CC(C)C)NC(=O)[C@H](CC(=O)O)NC(=O)[C@H](CO)NC(=O)[C@@H](NC(=O)[C@H](Cc1ccccc1)NC(=O)[C@@H](NC(=O)CNC(=O)[C@H](CCC(=O)O)NC(=O)C(C)(C)NC(=O)[C@@H](N)Cc1ccc(O)cc1)[C@@H](C)O)[C@@H](C)O)C(C)C)C(=O)N[C@@H](CCC(=O)O)C(=O)N[C@@H](Cc1c[nH]c2ccccc12)C(=O)N[C@@H](CC(C)C)C(=O)N[C@@H](CCCCN)C(=O)N[C@@H](C)C(=O)NCC(=O)NCC(=O)N1CCC[C@H]1C(=O)N[C@@H](CO)C(=O)N[C@@H](CO)C(=O)NCC(=O)N[C@@H](C)C(=O)N1CCC[C@H]1C(=O)N1CCC[C@H]1C(=O)N1CCC[C@H]1C(=O)N[C@@H](CO)C(N)=O [SEQ ID NO: 8, Y-Aib-EGTFTSDLSKLLEKEAVRLFIEWLKAGGPSSGAPPPS-NH2] (H-Y[Aib]EGTFTSDLSKLLEKEAVRLFIEWLKAGGPSSGAPPPS-NH2) | ~13 | statistical significant reduction of glucose | 2980 | 1.9 | 320 (≈ 76.9 µM) | 270 (≈ 64.8 µM) | 100 | 100
2 | CC[C@H](C)[C@H](NC(=O)[C@H](Cc1ccccc1)NC(=O)[C@H](CC(C)C)NC(=O)[C@H](CCCNC(=N)N)NC(=O)[C@@H](NC(=O)[C@H](C)NC(=O)[C@H](CCC(=O)O)NC(=O)[C@H](CCC(=O)O)NC(=O)[C@H](CCC(=O)O)NC(=O)[C@H](CC(C)C)NC(=O)[C@H](CC(C)C)NC(=O)[C@H](CCCCN)NC(=O)[C@H](CO)NC(=O)[C@H](CC(C)C)NC(=O)[C@H](CC(=O)O)NC(=O)[C@H](CO)NC(=O)[C@@H](NC(=O)[C@H](Cc1ccccc1)NC(=O)[C@@H](NC(=O)CNC(=O)[C@H](CCC(=O)O)NC(=O)C(C)(C)NC(=O)[C@@H](N)Cc1ccc(O)cc1)[C@@H](C)O)[C@@H](C)O)C(C)C)C(=O)N[C@@H](CCC(=O)O)C(=O)N[C@@H](Cc1c[nH]c2ccccc12)C(=O)N[C@@H](CC(C)C)C(=O)N[C@@H](CCCCN)C(=O)N[C@@H](C)C(=O)NCC(=O)NCC(=O)N1CCC[C@H]1C(=O)N[C@@H](CO)C(=O)N[C@@H](CO)C(=O)NCC(=O)N[C@@H](C)C(=O)N1CCC[C@H]1C(=O)N1CCC[C@H]1C(=O)N1CCC[C@H]1C(=O)N[C@@H](CO)C(N)=O [SEQ ID NO: 10, Y-Aib-EGTFTSDLSKLLEEEAVRLFIEWLKAGGPSSGAPPPS-NH2] (H-Y[Aib]EGTFTSDLSKLLEEEAVRLFIEWLKAGGPSSGAPPPS-NH2) | – | – | – | – | – | 990 (≈ 238 µM) | – | 100
